From ChEMBL document CHEMBL4346760, “Alkynamide phthalazinones as a new class of TbrPDEB1 inhibitors (Part 2)” (Bioorg Med Chem, 2019)
Calls of active or inactive are those of the source. The rule behind the calls is not given here.

What was measured:
[1] = target: T1, Class 1 phosphodiesterase PDEB1 (Trypanosoma brucei, UniProt Q8WQX9); assay: Inhibition of Trypanosoma brucei PDEB1 catalytic domain using cAMP as substrate incubated for 20 mins by PDELight HTS cAMP phosphodiesterase Kit based luminometry
T1 sequence (Q8WQX9 whole entry): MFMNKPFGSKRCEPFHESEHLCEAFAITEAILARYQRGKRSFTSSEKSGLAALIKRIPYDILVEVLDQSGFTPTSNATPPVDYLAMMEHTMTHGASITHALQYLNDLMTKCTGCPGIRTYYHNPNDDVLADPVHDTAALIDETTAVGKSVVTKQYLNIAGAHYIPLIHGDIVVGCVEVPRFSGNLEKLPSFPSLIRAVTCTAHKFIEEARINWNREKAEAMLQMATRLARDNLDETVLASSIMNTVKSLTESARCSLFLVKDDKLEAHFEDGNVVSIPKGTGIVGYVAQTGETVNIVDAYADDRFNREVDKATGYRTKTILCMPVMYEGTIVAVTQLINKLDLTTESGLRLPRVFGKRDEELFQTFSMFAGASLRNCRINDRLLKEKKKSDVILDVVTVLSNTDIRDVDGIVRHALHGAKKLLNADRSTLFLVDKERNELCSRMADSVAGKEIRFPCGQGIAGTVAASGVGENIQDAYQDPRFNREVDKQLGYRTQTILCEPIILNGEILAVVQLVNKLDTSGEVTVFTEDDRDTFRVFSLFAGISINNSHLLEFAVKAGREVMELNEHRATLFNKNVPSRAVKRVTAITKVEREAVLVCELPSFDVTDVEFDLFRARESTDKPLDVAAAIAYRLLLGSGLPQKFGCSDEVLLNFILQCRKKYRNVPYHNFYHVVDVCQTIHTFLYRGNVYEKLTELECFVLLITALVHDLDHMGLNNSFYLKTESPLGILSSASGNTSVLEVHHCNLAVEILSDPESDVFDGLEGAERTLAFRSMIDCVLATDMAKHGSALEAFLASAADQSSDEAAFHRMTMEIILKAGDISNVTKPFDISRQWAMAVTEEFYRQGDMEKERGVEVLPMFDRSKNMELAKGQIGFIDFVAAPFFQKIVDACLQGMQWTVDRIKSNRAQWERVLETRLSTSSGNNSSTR

[2] = target: 3',5'-cyclic-AMP phosphodiesterase 4B (Homo sapiens, UniProt Q07343); assay: Inhibition of human PDE4B catalytic domain using cAMP as substrate incubated for 20 mins by PDELight HTS cAMP phosphodiesterase Kit based luminometry
[3] = Cytotoxicity against human MRC5 cells assessed as reduction in cell viability incubated for 72 hrs by resazurin dye-based fluorimetric analysis
Trypanosoma brucei [4] = assay: Antitrypanosomal activity against Trypanosoma brucei Squib 427 trypomastigotes assessed as reduction in parasite growth incubated for 72 hrs by resazurin dye-based fluorimetric analysis; assay type: functional, organism-based; details: Squib 427, 72 h
[5] = Selectivity index, ratio of pKi for Trypanosoma brucei PDEB1 to pKi for human PDE4B using cAMP as substrate incubated for 20 mins by PDELight HTS cAMP phosphodiesterase Kit based luminometry
[6] = target: T1, Class 1 phosphodiesterase PDEB1; assay: Binding affinity to Trypanosoma brucei PDEB1 assessed as dissociation constant treated for 320 secs measured for 900 secs by SPR assay
[7] = target: T2, 3',5'-cyclic-AMP phosphodiesterase 4D (Homo sapiens, UniProt Q08499); assay: Binding affinity to human PDE4D assessed as dissociation constant treated for 320 secs measured for 900 secs by SPR assay
Trypanosoma brucei [8] = assay: Antitrypanosomal activity against procyclic form of Trypanosoma brucei 2913 assessed as increase in intracellular cAMP level at 1 to 10 uM by cAMP sensor based FRET assay; assay type: functional, organism-based
Trypanosoma brucei [9] = assay: Antitrypanosomal activity against bloodstream form of Trypanosoma brucei 221 cells assessed as blockade in cytokinesis with multiple flagella and nuclei formation at 1 uM incubated for 24 to 48 hrs by DAPI/PFR-staining based fluorescence microscopy; assay type: functional, organism-based
[10] = target: T1, Class 1 phosphodiesterase PDEB1; assay: Binding affinity to Trypanosoma brucei PDEB1 assessed as dissociation constant treated for 60 secs measured for 300 secs by SPR assay
[11] = target: T2, 3',5'-cyclic-AMP phosphodiesterase 4D; assay: Binding affinity to human PDE4D assessed as dissociation constant treated for 60 secs measured for 300 secs by SPR assay

3',5'-cyclic-AMP phosphodiesterase 4B, sequence (Q07343 whole entry, the tested form may be a part): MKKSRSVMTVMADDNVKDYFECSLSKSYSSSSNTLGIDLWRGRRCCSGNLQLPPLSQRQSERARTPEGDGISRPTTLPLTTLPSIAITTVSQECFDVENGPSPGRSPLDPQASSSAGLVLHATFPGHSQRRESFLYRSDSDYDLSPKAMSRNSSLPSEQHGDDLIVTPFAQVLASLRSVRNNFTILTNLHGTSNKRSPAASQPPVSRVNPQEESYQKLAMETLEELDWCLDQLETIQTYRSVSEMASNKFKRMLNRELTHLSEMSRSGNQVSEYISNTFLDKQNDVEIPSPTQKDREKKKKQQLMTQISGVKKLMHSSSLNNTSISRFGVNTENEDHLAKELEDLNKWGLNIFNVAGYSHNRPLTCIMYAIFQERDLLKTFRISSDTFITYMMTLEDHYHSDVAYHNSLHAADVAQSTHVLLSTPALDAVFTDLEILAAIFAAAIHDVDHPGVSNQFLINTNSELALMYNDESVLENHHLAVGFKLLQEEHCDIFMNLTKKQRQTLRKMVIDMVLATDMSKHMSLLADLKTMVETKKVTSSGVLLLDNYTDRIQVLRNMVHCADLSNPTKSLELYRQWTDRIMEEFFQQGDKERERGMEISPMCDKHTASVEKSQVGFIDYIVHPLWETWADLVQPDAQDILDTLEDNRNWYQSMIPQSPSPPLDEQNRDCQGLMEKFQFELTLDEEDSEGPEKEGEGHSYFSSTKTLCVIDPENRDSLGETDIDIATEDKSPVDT
T2 sequence (Q08499 whole entry): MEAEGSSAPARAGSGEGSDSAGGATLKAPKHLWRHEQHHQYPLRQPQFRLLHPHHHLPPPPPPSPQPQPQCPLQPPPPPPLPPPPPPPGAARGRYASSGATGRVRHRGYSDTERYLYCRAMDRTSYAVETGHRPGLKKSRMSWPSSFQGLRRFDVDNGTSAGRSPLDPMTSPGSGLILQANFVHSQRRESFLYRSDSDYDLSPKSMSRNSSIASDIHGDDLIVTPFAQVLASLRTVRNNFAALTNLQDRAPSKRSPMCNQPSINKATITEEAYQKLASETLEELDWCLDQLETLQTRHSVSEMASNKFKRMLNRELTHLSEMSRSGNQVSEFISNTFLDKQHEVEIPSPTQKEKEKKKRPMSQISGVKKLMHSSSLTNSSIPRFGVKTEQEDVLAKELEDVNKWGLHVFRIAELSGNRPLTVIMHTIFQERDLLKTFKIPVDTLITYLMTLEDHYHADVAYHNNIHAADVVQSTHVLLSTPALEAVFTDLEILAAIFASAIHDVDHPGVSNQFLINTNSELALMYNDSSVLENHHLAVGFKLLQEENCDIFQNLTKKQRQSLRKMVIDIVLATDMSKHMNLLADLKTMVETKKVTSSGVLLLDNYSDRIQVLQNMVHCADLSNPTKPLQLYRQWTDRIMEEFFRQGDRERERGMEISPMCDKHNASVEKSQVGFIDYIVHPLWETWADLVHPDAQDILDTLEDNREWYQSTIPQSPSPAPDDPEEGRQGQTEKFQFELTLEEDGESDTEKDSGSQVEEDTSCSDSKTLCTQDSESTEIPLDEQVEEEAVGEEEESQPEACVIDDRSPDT

Row | Structure (SMILES) | Ki [1] | Ki [2] | CC50 at 72 h [3] | IC50 (Trypanosoma brucei [4]) | Ratio pKi [5] | Kd [6] | Kd [7] | Activity (Trypanosoma brucei [8]) | Activity (Trypanosoma brucei [9]) | Kd [10] | Kd [11]
1 | COc1ccc(C2=NN(C(C)C)C(=O)[C@@H]3CC=CC[C@H]23)cc1C#CC(=O)NCc1cnn(C)c1 | 126 nM | 631 nM | 20000 nM | 1580 nM |  |  |  |  |  |  | 
2 | COc1ccc(C2=NN(C3CCCCCC3)C(=O)[C@@H]3CC=CC[C@H]23)cc1C#CC(N)=O | 631 nM | 316 nM |  |  |  |  |  |  |  |  | 
3 | COc1ccc(C2=NN(C3CCCCCC3)C(=O)[C@@H]3CC=CC[C@H]23)cc1-c1ccc(C(=O)NCC(N)=O)cc1 |  |  |  |  | 1 |  |  |  |  |  | 
4 | COc1ccc(C2=NN(C(C)C)C(=O)[C@@H]3CC=CC[C@H]23)cc1C#CC(=O)NCCCn1ccnc1 (relative stereo) | 398 nM | 631 nM | 251 nM | 7940 nM |  |  |  |  |  |  | 
5 | COc1ccc(C2=NN(C(C)C)C(=O)[C@@H]3CC=CC[C@H]23)cc1C#CC(=O)NCc1ccccc1 (relative stereo) | 158 nM | 794 nM | > 63100 nM | 631 nM |  | 79.4 nM | 79.4 nM | Active | Active |  | 
6 | COc1ccc(C2=NN(C(C)C)C(=O)[C@@H]3CC=CC[C@H]23)cc1C#CC(=O)NCc1ccc(C)o1 (relative stereo) | 200 nM | 200 nM | > 63100 nM | 3160 nM |  |  |  |  |  |  | 
7 | COc1ccc(C2=NN(C(C)C)C(=O)[C@@H]3CC=CC[C@H]23)cc1C#CC(=O)NCCc1cccs1 (relative stereo) | 398 nM | 794 nM | > 63100 nM | 2510 nM |  |  |  |  |  |  | 
8 | COc1ccc(C2=NN(C(C)C)C(=O)[C@@H]3CC=CC[C@H]23)cc1C#CC(=O)NCCc1ccccc1F (relative stereo) | 316 nM | 794 nM | > 63100 nM | 2000 nM |  |  |  |  |  |  | 
9 | COc1ccc(C2=NN(C(C)C)C(=O)[C@@H]3CC=CC[C@H]23)cc1C#CC(=O)NCc1ccco1 (relative stereo) | 126 nM | 398 nM | > 63100 nM | 2510 nM |  |  |  |  |  |  | 
10 | COc1ccc(C2=NN(C(C)C)C(=O)[C@@H]3CC=CC[C@H]23)cc1C#CC(=O)NCc1sc(C)nc1C (relative stereo) | 200 nM | 251 nM | 7940 nM | 2000 nM |  |  |  |  |  |  | 
11 | COc1ccc(C2=NN(C(C)C)C(=O)[C@@H]3CC=CC[C@H]23)cc1C#CC(=O)NCc1cccnc1 (relative stereo) | 100 nM | 501 nM | 3980 nM | 1260 nM |  |  |  |  |  |  | 
12 | COc1cccc(NC(=O)C#Cc2cc(C3=NN(C(C)C)C(=O)[C@@H]4CC=CC[C@H]34)ccc2OC)c1 (relative stereo) | 200 nM | 1000 nM | > 63100 nM | 1580 nM |  |  |  |  |  |  | 
13 | COc1ccc(C2=NN(C(C)C)C(=O)[C@@H]3CC=CC[C@H]23)cc1C#CC(=O)N1CC(C#N)C1 (relative stereo) | 631 nM | 398 nM | 7940 nM | 7940 nM |  |  |  |  |  |  | 
14 | COc1ccc(C2=NN(C(C)C)C(=O)[C@@H]3CC=CC[C@H]23)cc1C#CC(=O)NCc1ccncc1 (relative stereo) | 100 nM | 631 nM | 31600 nM | 1000 nM |  |  |  | Active | Active |  | 
15 | COc1ccc(C2=NN(C(C)C)C(=O)[C@@H]3CC=CC[C@H]23)cc1C#CC(N)=O (relative stereo) | 501 nM | 316 nM | 31600 nM | 6310 nM |  |  |  |  |  | 794 nM | 251 nM
16 | COc1ccc(C2=NN(C(C)C)C(=O)[C@@H]3CC=CC[C@H]23)cc1C#CC(=O)Nc1cnn(C)n1 (relative stereo) | 2510 nM | 501 nM | 10000 nM | > 63100 nM |  |  |  |  |  |  | 
17 | COc1ccc(C2=NN(C(C)C)C(=O)[C@@H]3CC=CC[C@H]23)cc1C#CC(=O)N1CCOCC1 (relative stereo) | 1000 nM | 794 nM | 31600 nM | 10000 nM |  |  |  |  |  |  | 
18 | COc1ccc(C2=NN(C(C)C)C(=O)[C@@H]3CC=CC[C@H]23)cc1C#CC(=O)NCC1CCC1 (relative stereo) | 316 nM | 794 nM | > 63100 nM | 6310 nM |  |  |  |  |  |  | 
19 | COc1ccc(C2=NN(C(C)C)C(=O)[C@@H]3CC=CC[C@H]23)cc1C#CC(=O)NCCc1nccs1 (relative stereo) | 251 nM | 398 nM | 10000 nM | 5010 nM |  |  |  |  |  |  | 
20 | COc1ccc(C2=NN(C(C)C)C(=O)[C@@H]3CC=CC[C@H]23)cc1C#CC(=O)Nc1ccn(CCCC#N)n1 (relative stereo) | 794 nM | 1260 nM | 7940 nM | 2000 nM |  |  |  |  |  |  | 
21 | COc1ccc(C2=NN(C(C)C)C(=O)[C@@H]3CC=CC[C@H]23)cc1C#CC(=O)NCc1cccs1 (relative stereo) | 126 nM | 501 nM | 63100 nM | 1000 nM |  |  |  |  |  |  | 
22 | CCCCNC(=O)C#Cc1cc(C2=NN(C(C)C)C(=O)[C@@H]3CC=CC[C@H]23)ccc1OC (relative stereo) | 316 nM | 501 nM | > 63100 nM | 7940 nM |  |  |  |  |  |  | 
23 | COc1ccc(C2=NN(C(C)C)C(=O)[C@@H]3CC=CC[C@H]23)cc1C#CC(=O)NCCC#N (relative stereo) | 1000 nM | 794 nM | 31600 nM | 25100 nM |  |  |  |  |  |  | 
24 | COc1ccc(C2=NN(C(C)C)C(=O)[C@@H]3CC=CC[C@H]23)cc1C#CC(=O)NCC1CC1 (relative stereo) | 398 nM | 316 nM | > 63100 nM | 7940 nM |  |  |  |  |  |  | 
25 | COc1ccc(C2=NN(C(C)C)C(=O)[C@@H]3CC=CC[C@H]23)cc1C#CC(=O)NCc1csc(C)n1 (relative stereo) | 316 nM | 1000 nM | 12600 nM | 2000 nM |  |  |  |  |  |  | 
26 | COc1ccc(C2=NN(C(C)C)C(=O)[C@@H]3CC=CC[C@H]23)cc1C#CC(=O)NCC1CCCO1 (relative stereo) | 398 nM | 1260 nM | 31600 nM | 7940 nM |  |  |  |  |  |  | 
